Test results: patent US9834525B2, “Inhibitors of paxillin function and related compositions and methods” (UNIVERSITY OF TENNESSEE RESEARCH FOUNDATION, priority 2015, dated 2017)
“Also recorded” adds a separate entry of the source. Where two headings read alike, the source gives them in different places.

Experiments:
Type in all cases: cell-based, human
[1] = test system: retinal endothelial cells (REC); test: transwell (Boyden chamber) cell migration assay, VEGF-stimulated RECs; settings: 24 hours of VEGF stimulation; +100, +500 nM
Description: (§1) Two methods of evaluating VEGF-induced REC migration were used to assess the impact of compound (II-4) on paxillin-mediated migration: the scratch assay and the transwell (Boyden chamber) cell migration assay. To test if paxillin inhibition would reduce VEGF-induced REC migration, RECs were wounded and treated with VEGF ([…]) +/− compound (II-4) ([…]). Wound closure was monitored by phase microscopy over 24 hours and area of wound closure was calculated using the sophisticated image analysis tools in Adobe Photoshop. Cells were then fixed and nuclei were stained using DAPI to show extent of cell migration.
Compound (II-4) was further investigated around these concentrations using the transwell migration assay (FIG. 17B).
(§2) FIG. 17: REC migration. A) Increasing concentrations of compound (II-4) inhibit VEGF-induced migration in a scratch wound assay; [Serum Free-control, VEGF (100 ng/mL), VEGF+100 nM, 500 nM, 10 μM, 100 μM] (IC50≈180 ηM; n=6/group). Cells were stained with DAPI for representative images. B) RECs seeded onto transwell membranes were stimulated with VEGF+ vehicle or compound (II-4) for 24 hrs. Cells were removed from the topside of membrane and migrated cells were stained with DAPI [Serum-Free (SF), VEGF, +100, +500 nM, respectively]. Cell number was measured using fluorescence microscopy. All data are mean±SD (*, # P<0.001)

[2] = test system: UM tumor cell lines; test: Total cell numbers in UM cultures
[3] = test system: retinal endothelial cells (REC); test: REC scratch-wound assay, VEGF-induced migration; settings: for IC50: Homo sapiens, Endothelial cell
Description: RECs were wounded and treated with VEGF (20 ng/mL) and either compound (II-4) (1 μM) or vehicle. Compound (II-4) reduced migration by ˜10-fold when measured 24 hrs post-scratch. (*P<0.001; n=6).
as §1
FIG. 2: REC scratch-wound assay. RECs were wounded and treated with VEGF (20 ng/mL) and either compound (II-4) (1 μM) or vehicle. Compound (II-4) reduced migration by ˜10-fold when measured 24 hrs post-scratch. (*P<0.001; n=6)
as §2

[4] = test system: paxillin (pY118) in OMM 2.5 cells; test: Western blot of pY118 and total paxillin in HGF-treated metastatic UM cells; settings: HGF-treated OMM 2.5 cells, 4 hrs
Description: REC, Mel 270, OMM 2.5 under Hepatocyte Growth Factor (HGF) or Vascular Endothelial Growth Factor (VEGF) stimulation conditions: Cell lysates were collected in RIPA lysis buffer (50 mM Tris-HCl, pH 7.4, 150 mM NaCl, 2 mM EDTA, 1% Nonidet P-40, 0.1% SDS) with protease 1× inhibitor cocktail (Roche; Indianapolis, Ind.). Lysates were kept on ice and centrifuged at 10,000×g×10 minutes and total protein was measured using the BCA assay (Pierce, Rockford, Ill.). Protein samples were mixed with 4×LDS loading buffer with 2.5% 2-mercaptoethanol (Sigma-Aldrich), heated to 70° C. for 10 minutes, and loaded on NuPAGE 4-12% Bis-Tris gel (Invitrogen, Carlsbad, Calif.). […] Dual-channel infrared scan and quantitation of immunoblots were conducted using the ODYSSEY Sa infrared imaging system with Image Studio (Ver. 3.1.4) (LI-COR).
Immune studies of the α4β1 integrins (VCAM-1 and VLA-4) show high affinity α4 integrins may initiate signaling cascades through paxillin that regulate leukocytes migration to inflammation sites. […] The levels of total paxillin and pY118 were measured after activation of metastatic-UM (OMM 2.5) cells with Hepatocyte Growth Factor (HGF) to address in vitro if disruption of α4-downstream signaling through paxillin can affect α4-downstream signaling. […]

[5] = test system: retinal endothelial cells (REC); test: VEGF-induced REC proliferation, WST-1 metabolic assay
Description: To investigate the potential of compound (II-4) affecting the proliferative capacity of RECs treated with VEGF, proliferation was measured using the metabolic assay based on the tetrazolium salt, WST-1. […] To rule out the possibility that this observation was related to cytotoxicity, RECs were incubated with a high concentration of compound (II-4) (1 μM) for 24 hours. Cells were harvested and apoptosis measured with Annexin-V/Propidium Iodide (PI) staining and analyzed using flow cytometry.
FIG. 18: REC Proliferation and Flow cytometry analysis of apoptosis in REC. A) VEGF-induced cellular proliferation was assessed using the WST-1 metabolic assay. […] (*P<0.0001). Nuclei were stained with DRAQ5 and imaged to show trend of decreasing proliferation. B) Apoptosis was measured using Annexin V/PI staining Compound (II-4) (1 μM) appears to be non-cytotoxic to retinal endothelial cells after 24 hour incubation (n≈10,000 cells).
FIG. 21: REC Proliferation. […] (*, # P<0.001; Mean±SD, N=8/group).

COc1cc(C2OC(=O)Nc3c2ccc2ccccc32)cc(OC)c1OC (centres unmarked) [compound II-4]
migration of RECs in transwell migration assay [1]: significant decrease | total cell numbers compared to untreated cultures [2]: reduction in total cell numbers | IC50 ([3]; VEGF (100 ng/mL), n=6/group, read-out: IC50, inhibition of VEGF-induced migration in scratch wound assay): ~180 nM | IC50 ([3]; wound closure at 24 hours, VEGF (100 μg/mL), compound 100 μM to 10 μM as printed, read-out: IC50, inhibition of VEGF-induced REC migration (wound closure)): 181 nM | reduction of migration in REC scratch-wound assay ([3]; VEGF (20 ng/mL), compound (II-4) 1 μM vs vehicle, 24 hrs post-scratch): ~10 fold | ratio of pY118 paxillin to total paxillin (pPax:Pax) [4]: dramatically decreased | VEGF-induced REC proliferation (FIG. 21) ([5]; Compound (II-4) (500 nM), LY294002 (1004), SU6656 (104), U0126 (104) [sic]): inhibited | VEGF-induced cellular proliferation (WST-1) ([5]; increasing concentrations of compound (II-4)): significant decrease; also recorded: significantly reduces cellular proliferation
